Source: ChEMBL document CHEMBL1140143, “Combining ligand-based pharmacophore modeling, quantitative structure-activity relationship analysis and in silico screening for the discovery of new potent hormone sensitive lipase inhibitors” (J Med Chem, 2008)

Molecular target: T1, Hormone-sensitive lipase (Rattus norvegicus, UniProt P15304)
T1 sequence (P15304 whole entry): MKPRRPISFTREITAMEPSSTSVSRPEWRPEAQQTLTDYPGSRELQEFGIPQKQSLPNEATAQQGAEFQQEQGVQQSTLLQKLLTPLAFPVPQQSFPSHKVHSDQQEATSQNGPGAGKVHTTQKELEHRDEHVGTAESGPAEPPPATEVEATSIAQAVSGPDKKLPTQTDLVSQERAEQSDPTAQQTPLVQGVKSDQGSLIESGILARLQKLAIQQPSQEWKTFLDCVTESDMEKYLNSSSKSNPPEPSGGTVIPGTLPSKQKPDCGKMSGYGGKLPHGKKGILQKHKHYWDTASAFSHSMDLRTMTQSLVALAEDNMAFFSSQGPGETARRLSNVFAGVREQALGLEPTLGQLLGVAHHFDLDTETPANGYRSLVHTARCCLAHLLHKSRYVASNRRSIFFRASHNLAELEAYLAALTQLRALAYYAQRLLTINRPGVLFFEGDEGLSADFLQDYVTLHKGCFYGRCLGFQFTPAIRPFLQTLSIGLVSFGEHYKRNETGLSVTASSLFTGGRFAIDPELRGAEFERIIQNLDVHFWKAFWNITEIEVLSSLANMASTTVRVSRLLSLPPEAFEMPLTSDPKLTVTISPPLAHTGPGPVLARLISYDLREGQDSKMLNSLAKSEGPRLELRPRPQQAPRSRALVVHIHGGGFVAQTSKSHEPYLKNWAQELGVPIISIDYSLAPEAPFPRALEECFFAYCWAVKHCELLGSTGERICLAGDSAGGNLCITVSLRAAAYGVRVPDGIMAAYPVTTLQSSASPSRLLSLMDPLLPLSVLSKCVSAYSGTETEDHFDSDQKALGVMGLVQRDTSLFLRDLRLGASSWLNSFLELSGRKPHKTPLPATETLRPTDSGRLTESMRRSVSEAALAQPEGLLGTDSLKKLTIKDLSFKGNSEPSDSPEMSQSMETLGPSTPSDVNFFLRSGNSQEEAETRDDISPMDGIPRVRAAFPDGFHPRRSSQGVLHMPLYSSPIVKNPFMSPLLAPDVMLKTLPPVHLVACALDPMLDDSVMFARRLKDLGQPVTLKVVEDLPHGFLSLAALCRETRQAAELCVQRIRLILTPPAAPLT
Assay: Inhibition of HSL in Wistar rat isolated fat cells by spectrophotometric assay

| SMILES | IC50 [nM] |
| --- | --- |
| Cc1c(Cc2cc3ccccc3n2C)c(=O)on1C(=O)N1CCCCC1 | 17 |
| Cc1c(C(C)C)c(=O)on1C(=O)N1CCC[C@@H](C)C1 | 20 |
| CCOC(=O)C1CCN(C(=O)n2oc(=O)c(C(C)C)c2C)CC1 | 6 |
| Cc1c(C(C)C)c(=O)on1C(=O)N1CCc2ccccc21 | > 1000 |
| CSc1nc(-c2ccc(Cl)cc2)nn1C(=O)N(C)C | 0.353 |
| Cc1c(CCOc2ccccc2)c(=O)on1C(=O)N1CCCCC1 | 4 |
| Cc1c(C2CCOCC2)c(=O)on1C(=O)N1CCCCC1 | 71 |
| Cc1c(C(C)C)c(=O)on1C(=O)N(C)CCc1ccccc1 | 180 |
| Cc1c(C(C)C)c(=O)on1C(=O)N(C)Cc1ccccc1 | 5 |
| Cc1c(C(C)C)c(=O)on1C(=O)N(C)Cc1ccccc1F | 4 |
| CSc1nc(-c2ccc(C)cc2)nn1C(=O)N(C)C | 0.53 |
| Cc1c(C(C)C)c(=O)on1C(=O)N1CCC(c2ccccc2)CC1 | 12 |
| Cc1c(CC(C)C)c(=O)on1C(=O)N1CCC(C)CC1 | 3 |
| Cc1c(C(C)C)c(=O)on1C(=O)N1CCN(C)CC1 | 314 |
| Cc1ccc(C2CCN(C(=O)n3oc(=O)c(C(C)C)c3C)CC2)cc1 | 37 |
| Cc1c(C(C)C)c(=O)on1C(=O)N(C)c1ccccc1 | 7 |
| CCCCc1c(C)n(C(=O)N2CCCCC2)oc1=O | 7 |
| CSc1nc(/C=C/c2ccccc2)nn1C(=O)N(C)C | 882 |
| Cc1c(C2CCCC2)c(=O)on1C(=O)N1CCC(c2ccccc2)CC1 | 24 |
| Cc1c(C2CCCC2)c(=O)on1C(=O)N1CCCCC1 | 6 |
| CSc1nc(-c2ccc(C)cc2)nn1C(=O)N(C)c1ccccc1 | 1.76 |
| Cc1c(C2CCCCC2)c(=O)on1C(=O)N1CCC(C)CC1 | 4 |
| Cc1c(C(C)C)c(=O)on1C(=O)N1CCCC(C)(C)C1 | 7 |
| CCOC(=O)C1CCCN(C(=O)n2oc(=O)c(C(C)C)c2C)C1 (centres undefined) | 28 |
| Cc1c(C(C)C)c(=O)on1C(=O)N1CCSCC1 | 8 |
| CCCSc1nc(-c2ccc(Cl)cc2)nn1C(=O)N(C)C | 1.06 |

| SMILES | IC50 [nM] |
| --- | --- |
| COCCc1c(C)n(C(=O)N2CCC(c3cccc(C)c3)CC2)oc1=O | 23 |
| Cc1c(C(C)C)c(=O)on1C(=O)N1CCCCCC1 | 62 |
| COc1nn(-c2ccc(NC(=O)c3ccc(C(C)(C)C)cc3)cc2)c(=O)o1 | 0.41 |
| CCOc1nn(-c2cccc(OCc3ccccc3)c2)c(=O)o1 | 19.4 |
| CCN(CC)C(=O)n1oc(=O)c(C(C)C)c1C | 1400 |
| Cc1c(C(C)C)c(=O)on1C(=O)N1CCN(c2ncccn2)CC1 | 67 |
| Cc1c(C(C)C)c(=O)on1C(=O)N(C)Cc1ccc(F)cc1 | 111 |
| Cc1c(C(C)C)c(=O)on1C(=O)N1CCC(O)CC1 | 166 |
| Cc1c(C(C)C)c(=O)on1C(=O)N1CCCCC1C (centres undefined) | 93 |
| Cc1c(C(C)C)c(=O)on1C(=O)NCC1CCCCC1 | 72 |
| O=C(N1CCCCC1)n1nc(-c2ccc(Cl)cc2)nc1SC1CCCCC1 | 882 |
| Cc1c(C(C)C)c(=O)on1C(=O)N(C)Cc1cccc(F)c1 | 5 |
| CN(C(=O)n1nc(-c2ccc(Cl)cc2)nc1SCC1CC1)c1ccccc1 | 1.09 |
| Cc1c(S(=O)(=O)c2ccc(Cl)cc2)c(=O)on1C(=O)N1CCCCC1 | 35 |
| CCSc1nc(-c2ccc(Cl)cc2)nn1C(=O)N(C)C | 3.71 |
| CSc1nc(-c2ccc(OC(F)(F)F)cc2)nn1C(=O)N(C)c1ccccc1 | 4.41 |
| CSc1nc(-c2ccc(C(F)(F)F)cc2)nn1C(=O)N(C)C | 1.76 |
| CCN(CC)C(=O)C1CCCN(C(=O)n2oc(=O)c(C(C)C)c2C)C1 (centres undefined) | > 1000 |
| Cc1c(C(C)C)c(=O)on1C(=O)N1CCNCC1 | > 1000 |
| Cc1c(C(C)C)c(=O)on1C(=O)N1CCC(C)CC1 | 6 |
| Cc1c(C(C)C)c(=O)on1C(=O)N1CCCc2ccccc21 | 60 |
| Cc1c(CC(C)C)c(=O)on1C(=O)N1CCCCC1 | 5 |
| COc1ccc(-c2nc(SC)n(C(=O)N(C)C)n2)cc1 | 15.9 |
| Cc1c(C(C)C)c(=O)on1C(=O)N1CCC[C@H](C)C1 | 3 |
| Cc1c(C2CCSCC2)c(=O)on1C(=O)N1CCCCC1 | 11 |
| Cc1c(Sc2ccccc2)c(=O)on1C(=O)N1CCCCC1 | 6 |

| SMILES | IC50 [nM] |
| --- | --- |
| Cc1c(C(C)C)c(=O)on1C(=O)N(C)CCC#N | > 1000 |
| Cc1c(C(C)C)c(=O)on1C(=O)N(C)Cc1cccs1 | 2 |
| CCCCCCSc1nc(-c2ccc(C)cc2)nn1C(=O)N(C)c1ccccc1 | 12.3 |
| Cc1c(C(C)C)c(=O)on1C(=O)N1CCCC1 | 15 |
| Cc1c(C(C)C)c(=O)on1C(=O)N1CCC(c2cccc(F)c2)CC1 | 12 |
| CCOCCc1c(C)n(C(=O)N2CCC(C)CC2)oc1=O | 3 |
| Cc1c(C(C)C)c(=O)on1C(=O)N1CCN(c2ccccc2)CC1 | 6 |
| Cc1c(C(C)C)c(=O)on1C(=O)N(C)CC(N)=O | > 1000 |
| CN(C(=O)n1nc(-c2ccc(Cl)cc2)nc1SCC(F)(F)F)c1ccccc1 | 3 |
| CSc1nc(-c2ccc(C)cc2)nn1C(=O)N1CCOCC1 | 70.6 |
| Cc1c(CC(C)C)c(=O)on1C(=O)N1CCC(c2ccccc2)CC1 | 10 |
| Cc1c(C(C)C)c(=O)on1C(=O)N1CCCCC1 | 2 |
| CCc1c(C)n(C(=O)N2CCCCC2)oc1=O | 18 |
| Cc1c(C(C)C)c(=O)on1C(=O)N(C)c1ccccn1 | 240 |
| Cc1c(C(C)C)c(=O)on1C(=O)N1CCOCC1 | 52 |
| Cc1c(C2CCCCC2)c(=O)on1C(=O)N1CCCCC1 | 11 |
| Cc1nnc(C2CCN(C(=O)n3oc(=O)c(C(C)C)c3C)CC2)o1 | > 1000 |
| O=C(N1CCCCC1)n1nc(-c2ccc(Cl)cc2)nc1SCC(F)(F)F | 7.06 |
| Cc1ccc(-c2nc(SCC(F)(F)F)n(C(=O)N(C)C)n2)cc1 | 10.6 |
| CSc1nc(-c2ccc(-c3ccccc3)cc2)nn1C(=O)N(C)C | 26.5 |
| Cc1ccc(CN(C)C(=O)n2oc(=O)c(C(C)C)c2C)cc1 | 408 |
| Cc1c(C(C)C)c(=O)on1C(=O)N1CCC(=O)CC1 | 200 |
| Cc1c(C(C)C)c(=O)on1C(=O)N(C)C1CCCCC1 | 9 |
| Cc1c(C(C)C)c(=O)on1C(=O)N1CCN(Cc2ccccc2)CC1 | 65 |
| CCCCCCSc1nc(-c2ccc(Cl)cc2)nn1C(=O)N(C)c1ccccc1 | 7.06 |
| Cc1c(C(C)C)c(=O)on1C(=O)N1CCC(C(=O)c2ccccc2)CC1 | 250 |

| SMILES | IC50 [nM] |
| --- | --- |
| Cc1c(C(C)C)c(=O)on1C(=O)Nc1ccccc1 | > 1000 |
| CCSc1nc(-c2ccc(OC)cc2)nn1C(=O)N(C)c1ccccc1 | 5.29 |
| Cc1ccc(-c2nc(SCc3ccccc3)[nH]c(=O)c2CCO)cc1 | 2980 |
| Cc1c(-c2ccccc2)c(=O)on1C(=O)N1CCCCC1 | 14 |
| COCCc1c(C)n(C(=O)N2CCC(c3cccc(F)c3)CC2)oc1=O | 20 |
| COCCc1c(C)n(C(=O)N2CCCCC2)oc1=O | 10 |
| Cc1c(C(C)C)c(=O)on1C(=O)N1CCC(Cc2ccccc2)CC1 | 102 |
| Cc1c(C(C)C)c(=O)on1C(=O)N(C)c1ccc(Cl)cc1 | 17 |
| Cc1c(C(C)C)c(=O)on1C(=O)N(C)Cc1ccco1 | 4 |
| Cc1c(C2CCSCC2)c(=O)on1C(=O)N1CCC(C)CC1 | 6 |
| CSc1nc(-c2cccc3ccccc23)nn1C(=O)N(C)C | 35.3 |
| CCSc1nc(-c2ccc(OC)cc2)nn1C(=O)N1CCOCC1 | 159 |
| Cc1c(C(C)C)c(=O)on1C(=O)N1CCC(O)(c2ccccc2)CC1 | > 1000 |
| CSc1nc(-c2ccc(Cl)cc2)nn1C(=O)N(C)c1ccccc1 | 2.82 |
| Cc1c(Cc2ccccc2)c(=O)on1C(=O)N1CCCCC1 | 5 |
| Cc1c(C(C)C)c(=O)on1C(=O)N1CCC(c2ccc(C(C)(C)C)cc2)CC1 | 480 |
| CSc1nc(-c2ccc(Cl)cc2)nn1C(=O)N1CCCCC1 | 1.76 |
| CSc1nc(-c2ccc(OC(F)(F)F)cc2)nn1C(=O)N(C)C | 1.76 |
| CSc1nc(-c2ccc(Cl)cc2)nn1C(=O)N1CCOCC1 | 35.3 |
| Cc1c(C(C)C)c(=O)on1C(=O)N1CCN(c2ccccc2Cl)CC1 | 30 |
| Cc1c(C(C)C)c(=O)on1C(=O)N1CCCC(CO)C1 (centres undefined) | 180 |
| Cc1c(Sc2ccc(Cl)cc2)c(=O)on1C(=O)N1CCCCC1 | 6 |
| Cc1c(C(C)C)c(=O)on1C(=O)N1CCC(C(=O)N(C)C)CC1 | > 1000 |
| Cc1c(C(C)(C)C)c(=O)on1C(=O)N1CCCCC1 | 14 |
| Cc1c(C(C)C)c(=O)on1C(=O)N1CCCCCCC1 | 900 |
| Cc1c(C(C)C)c(=O)on1C(=O)N1CCC(c2ccc(C(F)(F)F)cc2)CC1 | 160 |
